{"source": "patent US20110008461A1", "about": "(priority 2008, published 2011)", "key": {"[1]": {"biological_target": "T1, Rat Liver Cytosolic Phosphoenolpyruvate Carboxykinase (Rattus norvegicus, UniProt P07379)", "T1 sequence (P07379 1-622)": "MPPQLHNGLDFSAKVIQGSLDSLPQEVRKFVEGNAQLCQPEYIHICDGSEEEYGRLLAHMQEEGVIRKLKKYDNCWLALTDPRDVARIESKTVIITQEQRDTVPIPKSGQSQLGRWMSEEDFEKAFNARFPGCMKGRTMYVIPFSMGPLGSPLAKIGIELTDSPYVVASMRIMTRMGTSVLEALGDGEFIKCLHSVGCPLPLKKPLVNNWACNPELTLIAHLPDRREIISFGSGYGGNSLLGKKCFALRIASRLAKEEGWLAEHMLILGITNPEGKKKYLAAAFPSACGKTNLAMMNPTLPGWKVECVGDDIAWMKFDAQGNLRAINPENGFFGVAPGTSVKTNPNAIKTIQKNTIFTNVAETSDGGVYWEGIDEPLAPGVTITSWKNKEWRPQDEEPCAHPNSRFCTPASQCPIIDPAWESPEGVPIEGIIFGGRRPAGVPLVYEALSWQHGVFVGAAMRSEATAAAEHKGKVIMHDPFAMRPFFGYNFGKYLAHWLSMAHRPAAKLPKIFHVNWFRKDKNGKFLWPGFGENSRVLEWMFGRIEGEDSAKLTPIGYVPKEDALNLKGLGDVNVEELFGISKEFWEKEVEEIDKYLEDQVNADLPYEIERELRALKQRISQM", "experiment": "Continuous spectrophotometric PEPCK inhibition assay coupled to malate dehydrogenase (preliminary screen, inhibition patterns, Dixon plots);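 also: PEPCK activity followed continuously via malate dehydrogenase coupling, where OAA reduction consumes NADH, seen as falling absorbance at 340 nm, run at 35 °C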", "settings": "for Inhibition of PEPCK (in words): against PEP", "description": "TES (pH 7.2), 7.5% glycerol (v:v), 0.2 mM EDTA.\nThe inhibition of PEPCK by various compounds was evaluated using a continuous spectrophotometric assay in which the coupling enzyme, malate dehydrogenase, reduced OAA to malate concomitant with the oxidation of NADH to NAD^+. The decrease in absorbance at 340 nm was monitored using a Beckman DU-70 Spectrophotometer equipped with a temperature controller. The standard 1-mL reaction mixture for the production of OAA contained 56 mM HEPES-KOH buffer (pH 7.0), 1 mM IDP (or alternatively, 0.1 mM GDP), 23 U malate dehydrogenase (1 unit of malate dehydrogenase is defined as 1 mole malate produced/min/mg protein), 0.25 mM NADH, 2.3 mM MnCl2, and 48 mM NaHCO3. […] All assay components except PEPCK were preincubated in the cuvette for 3 min at 35° C., the standard assay temperature.\nThe kinetic parameters for the inhibition studies were best fit to the equations for competitive inhibition (Eq. 1) and noncompetitive inhibition (Eq. 2), using the computer program and nomenclature of Cleland (Cleland, W. W. (1979) Statistical analysis of enzyme kinetic data. Methods Enzymol 63, 103-138).\nv=VA/[K(1+1/Kis)+A] (Eq. 1)\nv=VA/[K(1/Kis)+A(1+1/Kii)] (Eq. 2)\nThe parameters are defined as follows: v is the initial velocity, V is the maximal rate of product formation in the absence of inhibitor, A is the concentration of the variable substrate, K is the apparent Michaelis constant for the varied substrate, and Kis and Kii are the inhibition constants."}, "PEPCK": {"biological_target": "PEPCK", "settings": "cited from earlier work"}, "[2]": {"biological_target": "pyrophosphate-dependent phosphofructokinase", "settings": "reported; cited from earlier work"}, "avian liver mPEPCK": {"biological_target": "T2, avian liver mPEPCK (Gallus gallus, UniProt P21642)", "T2 sequence (P21642 34-641)": "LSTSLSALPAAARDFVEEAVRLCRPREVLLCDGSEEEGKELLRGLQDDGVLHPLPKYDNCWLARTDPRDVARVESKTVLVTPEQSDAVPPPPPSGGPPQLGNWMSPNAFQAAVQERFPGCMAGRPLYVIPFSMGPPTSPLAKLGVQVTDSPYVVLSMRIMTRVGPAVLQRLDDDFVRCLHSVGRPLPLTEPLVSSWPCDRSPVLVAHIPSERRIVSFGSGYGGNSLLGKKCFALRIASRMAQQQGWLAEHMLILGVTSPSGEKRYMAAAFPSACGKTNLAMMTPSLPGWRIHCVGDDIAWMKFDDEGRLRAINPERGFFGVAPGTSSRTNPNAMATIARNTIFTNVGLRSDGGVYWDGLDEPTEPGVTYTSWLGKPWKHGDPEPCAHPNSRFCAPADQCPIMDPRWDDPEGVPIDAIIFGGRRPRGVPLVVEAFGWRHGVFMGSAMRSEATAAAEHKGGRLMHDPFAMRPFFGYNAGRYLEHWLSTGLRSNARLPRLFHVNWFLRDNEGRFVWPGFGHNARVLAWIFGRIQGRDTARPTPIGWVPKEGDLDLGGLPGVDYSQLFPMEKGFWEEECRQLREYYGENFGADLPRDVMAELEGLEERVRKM", "settings": "with respect to OAA; cited from earlier work"}, "[3]": {"settings": "analogue 3 mM, PEP 40 μM, preliminary screen, average of two PEPCK preparations"}, "[4]": {"settings": "analogue 1.5 mM, PEP 40 μM, preliminary screen, average of two PEPCK preparations"}}, "note": "“And” between values parts separate entries of the source, which are not always exact repeats. Equal entries are not always repeated. Structures can show the parent of a compound that is named as a salt. Where two headings read alike, the source gives them in different places. Marks after values point to notes of the source that are not given here."}
{"compound": "O=[N+]([O-])c1ccc(OP(=O)(O)O)cc1", "note": "[Compound 35, p-Nitrophenylphosphate]", "values": [{"measurement": "% Activity Remaining", "setting": "[1]; [3]", "result": "103^c %"}]}
{"compound": "O=C(O)[C@H](O)[C@@H](O)[C@H](O)[C@H](O)COP(=O)(O)O", "note": "[Compound 16, 6-phosphogluconate]", "values": [{"measurement": "Inhibition of PEPCK (in words)", "setting": "[1]", "result": "does not inhibit"}, {"measurement": "% Activity Remaining", "setting": "[1]; [3]", "result": "117^c %"}]}
{"compound": "O=C(O)/C=C/C(=O)O", "note": "[Compound 6, Fumarate]", "values": [{"measurement": "Inhibition of PEPCK (in words)", "setting": "[1]", "result": "did not inhibit"}, {"measurement": "% Activity Remaining", "setting": "[1]; analogue 6 mM, PEP 40 μM, preliminary screen, average of two PEPCK preparations", "result": "83^e %"}]}
{"compound": "N[C@@H](CS(=O)(=O)O)C(=O)O", "note": "[Compound 26, Cysteic acid]", "values": [{"measurement": "Inhibition of PEPCK (in words)", "setting": "[1]", "result": "even less inhibitory"}, {"measurement": "% Activity Remaining", "setting": "[1]; [3]", "result": "76^c %"}]}
{"compound": "N[C@@H](COP(=O)(O)O)C(=O)O", "note": "[Compound 21, Serine phosphate]", "values": [{"measurement": "% Activity Remaining", "setting": "[1]; [4]", "result": "108^f %"}]}
{"compound": "Phenylphosphate [Compound 34]", "values": [{"measurement": "% Activity Remaining", "setting": "[1]; [3]", "result": "96^c %"}]}
{"compound": "O=C(O)C1CCCC1C(=O)O", "note": "(stereo not shown) [Compound 8, 1,2-Cyclopentanedicarboxylate]", "values": [{"measurement": "% Activity Remaining", "setting": "[1]", "result": "91^c %"}]}
{"compound": "O=C(O)CCS(=O)(=O)O", "note": "[Compound 25, 3-Sulfopropionate]", "values": [{"measurement": "Pattern of Inhibition", "setting": "[1]; PEP varied substrate", "result": "Competitive"}, {"measurement": "Ki", "setting": "[1]; PEP varied substrate, Cleland kinetics program, 35° C., pH 7.0", "result": "3400 ± 300", "unit": "µM"}, {"measurement": "Inhibition of PEPCK (in words)", "setting": "[1]", "result": "poor inhibitor"}, {"measurement": "% Activity Remaining", "setting": "[1]; [3]", "result": "69^c %"}]}
{"compound": "C=C(CP(=O)(O)O)C(=O)O", "note": "[Compound 15, 2-(Phosphonomethyl)acrylate]", "values": [{"measurement": "Inhibition of PEPCK (in words)", "setting": "[1]", "result": "noninhibitory"}, {"measurement": "% Activity Remaining", "setting": "[1]; [3]", "result": "92^c %"}]}
{"compound": "O=C(O)C(=O)O", "note": "[Compound 1, Oxalate]", "values": [{"measurement": "Ki", "setting": "PEPCK", "result": "5 to 89", "unit": "µM"}]}
{"compound": "O=C(O)CP(=O)(O)O", "note": "[Compound 11, Phosphonoacetate]", "values": [{"measurement": "Inhibition of PEPCK (in words)", "setting": "[1]", "result": "noninhibitory"}, {"measurement": "% Activity Remaining", "setting": "[1]; [3]", "result": "108^c %"}]}
{"compound": "O=C(O)CC(=O)O", "note": "[Compound 2, Malonate]", "values": [{"measurement": "% Activity Remaining", "setting": "[1]; [3]", "result": "102^c %"}]}
{"compound": "Threonine phosphate [Compound 22]", "values": [{"measurement": "% Activity Remaining", "setting": "[1]; [3]", "result": "97^c %"}]}
{"compound": "O=P(O)(O)CP(=O)(O)O", "note": "[Compound 29, Methanediphosphonate]", "values": [{"measurement": "Pattern of Inhibition", "setting": "[1]; PEP varied substrate", "result": "noncompetitive"}, {"measurement": "Pattern of Inhibition", "setting": "[1]; PEP varied substrate, listed as Methanediphosphonate (29)", "result": "Noncompetitive"}, {"measurement": "% Activity Remaining", "setting": "[1]; [4]", "result": "4^f %"}, {"measurement": "Ki", "setting": "[1]; read-out: Ki, intercept effect (Kii), noncompetitive, PEP varied substrate", "result": "90 ± 5", "unit": "µM"}, {"measurement": "Ki", "setting": "[1]; read-out: Ki, slope effect (Kis), noncompetitive, PEP varied substrate, Cleland kinetics program", "result": "32 ± 2", "unit": "µM"}, {"measurement": "IC50", "setting": "[2]", "result": "> 2000", "unit": "µM"}]}
{"compound": "O=C(O)C(=O)CS(=O)(=O)O", "note": "[β-sulfopyruvate]", "values": [{"measurement": "Pattern of Inhibition", "setting": "avian liver mPEPCK", "result": "competitive"}]}
{"compound": "O=C(O)CC(C(=O)O)S(=O)(=O)O", "note": "(stereo not shown) [Compound 4, Sulfosuccinate]", "values": [{"measurement": "% Activity Remaining", "setting": "[1]", "result": "55^c %"}, {"measurement": "Ki", "setting": "[1]", "result": "~3300 µM and 3300 µM"}]}
{"compound": "NC(CCCP(=O)(O)O)C(=O)O", "note": "(stereo not shown) [Compound 20, 2-Amino-5-phosphonovalerate]", "values": [{"measurement": "% Activity Remaining", "setting": "[1]", "result": "98^f %"}]}
